Measured values reported in patent US20230069174A1, “NITROGEN-CONTAINING HETEROCYCLIC AUTOTAXIN INHIBITOR, AND COMPOSITION CONTAINING SAME AND USE THEREOF” (SICHUAN HAISCO PHARMACEUTICAL CO., LTD., priority 2019, published 2023).
Like-named read-outs stand apart in the source and are kept apart here.

How the values were obtained:
ATX = target: T1, ATX (Homo sapiens, UniProt Q13822); test: ATX inhibitory activity: LPA production in pooled human plasma, LC-MS-MS; assay type: biochemical; conditions: 37° C. 2 h
T1 construct: ATX activity was detected by detecting LPA production in pooled human plasma; from tissue; host or cells: pooled human plasma (heparin-anticoagulated whole blood, centrifuged)
Method: Experimental subject: compounds to be tested.
ATX activity was detected by detecting LPA production in pooled human plasma. Whole blood anticoagulated with heparin was collected and centrifuged, and then plasma was collected. 5-μL gradient dilution of the compound to be tested or DMSO was added to 95-μL plasma, incubated at 37° C. for 2 h, then a stop solution (40 mM disodium hydrogen phosphate buffer, containing a buffer solution (containing 30 mM citric acid, pH=4)) was added. LPA in plasma was detected by LC-MS-MS before and after incubation.
LPA (18:2) and (20:4) LC-MS-MS analytical method
Using a 1.5 mL EP tube, 3.0 μL of each of the working solutions for standard curve and quality control was taken and added to 27.0 μL of water. After homogeneously mixing by vortex, 400 μL of internal standard solution was added. After homogeneously mixing by vortex, the mixture was centrifuged at 4° C. for 10 min. 180 μL of supernatant was taken and added into a 96-well plate, waiting for sample injection.
10 μL of the compound to be tested (10 mg/ml) was precisely pipetted into an EP tube, 990 μL of DMSO solution was added, and the mixture was vortexed to completely dissolve to obtain a solution (100 μg/mL).
Inhibition rate of ATX receptor activity was calculated in the following way: inhibition rate %=((LPAc−LPA0)−(LPAi−LPA0))/(LPAc−LPA0)*100%, wherein LPAc was the LPA content in plasma after DMSO was added and incubated for 2 h, LPA0 was the LPA content in plasma before DMSO was added for incubation, and LPAi was the LPA content in plasma after test compound was added and incubated for 2 h.

[1] = Pharmacokinetic experiment in mice (single dose iv and intragastric); assay type: in vivo; conditions: mouse, plasma, male C57 mice
Method: Experimental objective: In this experiment, a single dose of each test compound was administered to C57 mice intravenously and intragastrically, the concentrations of the compounds 35, 37 and 38 in plasma of the mice were measured, and the pharmacokinetic characteristics and bioavailability of each test compound in mice were evaluated.
Experimental animals: Male C57 mice, 20-25 g, 6-8 weeks old, 18 mice/compound. The experimental animals were purchased from CHENGDU DOSSY EXPERIMENTAL ANIMALS CO., LTD.
Experimental method: On the day of the experiment, 18 C57 mice were randomly grouped according to their body weight. The animals were fasted with water available for 12 to 14 hours one day before the administration of a test compound, and were fed 4 hours after the administration.
Before and after the administration, 0.08 ml of blood was taken from the orbit of the […] under isoflurane anesthesia, and placed in an EDTAK2 centrifuge tube. Centrifugation was carried out at 5000 rpm at 4° C. for 10 min and the plasma was collected.
Time points for plasma collection in G1 group: 0, 5, 15, 30 min, 1, 2, 4, 6, 8, and 24 h.
Time points for plasma collection in G2 group: 0, 15, 30 min, 1, 2, 4, 6, 8, and 24 h.
Before analysis and detection, all samples were stored at −80° C.
30 μL of each of plasma sample, standard curve and quality control sample was taken, and 200 μL of acetonitrile solution containing internal standard was added, and the mixture was homogeneously mixed by vortex, and then centrifuged at 12000 rpm for 10 min at 4° C. The supernatant was taken and added into a 96-well plate and analyzed by LC-MS/MS.
The main pharmacokinetic parameters were analyzed by non-compartmental model using WinNonlin 8.0 software.

[2] = LPA 18:2 readout, read-out: Inhibitory activity against ATX receptor, LPA 18:2 IC50
[3] = LPA 20:4 readout, read-out: Inhibitory activity against ATX receptor, LPA 20:4 IC50

SMILES	IC50 (ATX; [2])	IC50 (ATX; [3])	further results
C[C@@](F)(C(=O)N1CCc2[nH]nnc2C1)c1nnc(-c2cnc(NC3Cc4ccccc4C3)nc2)o1 (single isomer, unassigned) [Compound 38]	5.53 nM	5.88 nM	bioavailability ([1]; po 10 mg/kg vs iv 2.5 mg/kg, read-out: F (bioavailability)): 59.3%; AUC ([1]; iv 2.5 mg/kg): 1480 ng·h/mL; C0 ([1]; iv 2.5 mg/kg): 3330 ng/mL; half-life ([1]; iv 2.5 mg/kg): 33.1 min; AUC ([1]; po 10 mg/kg): 3500 ng·h/mL; Cmax ([1]; po 10 mg/kg): 3590 ng/mL; Tmax ([1]; po 10 mg/kg): 15 min; half-life ([1]; po 10 mg/kg): 48.3 min
C#Cc1ccc2c(c1)C[C@@H](Nc1ncc(-c3nnc(CC(=O)N4CCc5[nH]nnc5C4)o3)cn1)C2 (single isomer, unassigned) [Compound 40]	1.51 nM	1.56 nM	–
O=C(Cc1nnc(-c2cnc(N[C@H]3Cc4ccc(-c5ccoc5)cc4C3)nc2)o1)N1CCc2[nH]nnc2C1 (single isomer, unassigned) [Compound 42]	2.86 nM	2.69 nM	–
O=C(Cn1cc(-c2cnc(NC3Cc4ccccc4C3)nc2)c(OC2CC2)n1)N1CCc2[nH]nnc2C1 [Compound 1, 2-(3-cyclopropoxy-4-(2-((2,3-dihydro-1H-inden-2-yl)amino)pyrimidin-5-yl)-1H-pyrazol-1-yl)-1-(1,4,6,7-tetrahydro-5H-[1,2,3]triazolo[4,5-c]pyridin-5-yl)ethan-1-one]	8.53 nM	–	–
N#Cc1nn(CC(=O)N2CCc3[nH]nnc3C2)cc1-c1cnc(NC2Cc3ccccc3C2)nc1 [Compound 2, 4-(2-((2,3-dihydro-1H-inden-2-yl)amino)pyrimidin-5-yl)-1-(2-oxo-2-(1,4,6,7-tetrahydro-5H-[1,2,3]triazolo[4,5-c]pyridin-5-yl)ethyl)-1H-pyrazole-3-carbonitrile]	6.19 nM	6.85 nM	–
CNC(=O)c1nn(CC(=O)N2CCc3[nH]nnc3C2)cc1-c1cnc(NC2Cc3ccccc3C2)nc1 [Compound 3, 4-(2-((2,3-dihydro-1H-inden-2-yl)amino)pyrimidin-5-yl)-N-methyl-1-(2-oxo-2-(1,4,6,7-tetrahydro-5H-[1,2,3]triazolo[4,5-c]pyridin-5-yl)ethyl)-1H-pyrazole-3-carboxamide]	5.68 nM	5.65 nM	–
O=C(N1CCc2[nH]nnc2C1)C1(c2nnc(-c3cnc(NC4Cc5ccccc5C4)nc3)o2)CC1 [Compound 4, (1-(5-(2-((2,3-dihydro-1H-inden-2-yl)amino)pyrimidin-5-yl)-1,3,4-oxadiazol-2-yl)cyclopropyl)(1,4,6,7-tetrahydro-5H-[1,2,3]triazolo[4,5-c]pyridin-5-yl)methanone]	4.93 nM	5.33 nM	–
O=C(Cc1nnc(-c2cnc(NC3Cc4ccc(C5CC5)cc4C3)nc2)o1)N1CCc2[nH]nnc2C1 (stereo not drawn) [Compound 7, 2-(5-(2-((5-cyclopropyl-2,3-dihydro-1H-inden-2-yl)amino)pyrimidin-5-yl)-1,3,4-oxadiazol-2-yl)-1-(1,4,6,7-tetrahydro-5H-[1,2,3]triazolo[4,5-c]pyridin-5-yl)ethan-1-one]	7.46 nM	7.67 nM	–
N#Cc1ccc2c(c1)CC(Nc1ncc(-c3nnc(CC(=O)N4CCc5[nH]nnc5C4)o3)cn1)C2 (stereo not drawn) [Compound 8, 2-((5-(5-(2-(6,7-dihydro-1H-[1,2,3]triazolo[4,5-c]pyridin-5(4H)-yl)-2-oxoethyl)-1,3,4-oxadiazol-2-yl)pyrimidin-2-yl)amino)-2,3-dihydro-1H-indene-5-carbonitrile]	5.94 nM	6.18 nM	–
O=C(Cc1nnc(-c2cnc(NC3Cc4ccc(C(F)F)cc4C3)nc2)o1)N1CCc2[nH]nnc2C1 (stereo not drawn) [Compound 9, 2-(5-(2-((5-(difluoromethyl)-2,3-dihydro-1H-inden-2-yl)amino)pyrimidin-5-yl)-1,3,4-oxadiazol-2-yl)-1-(1,4,6,7-tetrahydro-5H-[1,2,3]triazolo[4,5-c]pyridin-5-yl)ethan-1-one]	3.26 nM	3.65 nM	–
O=C(NC1(c2nnc(-c3cnc(NC4Cc5ccccc5C4)nc3)o2)CC1)N1CCc2[nH]nnc2C1 [Compound 14, N-(1-(5-(2-((2,3-dihydro-1H-inden-2-yl)amino)pyrimidin-5-yl)-1,3,4-oxadiazol-2-yl)cyclopropyl)-1,4,6,7-tetrahydro-5H-[1,2,3]triazolo[4,5-c]pyridine-5-carboxamide]	5.97 nM	6.56 nM	–
O=C(N1CCc2[nH]nnc2C1)C1(c2nnc(-c3cnc(NC4Cc5ccccc5C4)nc3)o2)CCC1 [Compound 20, (1-(5-(2-((2,3-dihydro-1H-inden-2-yl)amino)pyrimidin-5-yl)-1,3,4-oxadiazol-2-yl)cyclobutyl)(1,4,6,7-tetrahydro-5H-[1,2,3]triazolo[4,5-c]pyridin-5-yl)methanone]	3.65 nM	3.76 nM	–
N#Cc1nc(CC(=O)N2CCc3[nH]nnc3C2)oc1-c1cnc(NC2Cc3ccccc3C2)nc1 [Compound 22, 5-(2-((2,3-dihydro-1H-inden-2-yl)amino)pyrimidin-5-yl)-2-(2-oxo-2-(1,4,6,7-tetrahydro-5H-[1,2,3]triazolo[4,5-c]pyridin-5-yl)ethyl)oxazole-4-carbonitrile]	4.97 nM	6.84 nM	–
O=C(Cc1nnc(-c2cnc(NC3Cc4cscc4C3)nc2)o1)N1CCc2[nH]nnc2C1 [Compound 26, 2-(5-(2-((5,6-dihydro-4H-cyclopenta[c]thiophen-5-yl)amino)pyrimidin-5-yl)-1,3,4-oxadiazol-2-yl)-1-(1,4,6,7-tetrahydro-5H-[1,2,3]triazolo[4,5-c]pyridin-5-yl)ethan-1-one]	8.73 nM	8.86 nM	–
CC(F)(C(=O)N1CCc2[nH]nnc2C1)c1nnc(-c2cnc(NC3Cc4ccccc4C3)nc2)o1 (stereo not drawn) [Compound 27, 2-(5-(2-((2,3-dihydro-1H-inden-2-yl)amino)pyrimidin-5-yl)-1,3,4-oxadiazol-2-yl)-2-fluoro-1-(1,4,6,7-tetrahydro-5H-[1,2,3]triazolo[4,5-c]pyridin-5-yl)propan-1-one]	6.26 nM	7.08 nM	–
O=C(Cc1nnc(-c2cnc(NC3Cc4ccc(-c5ccoc5)cc4C3)nc2)o1)N1CCc2[nH]nnc2C1 (stereo not drawn) [Compound 28, 2-(5-(2-((5-(furan-3-yl)-2,3-dihydro-1H-inden-2-yl)amino)pyrimidin-5-yl)-1,3,4-oxadiazol-2-yl)-1-(1,4,6,7-tetrahydro-5H-[1,2,3]triazolo[4,5-c]pyridin-5-yl)ethan-1-one]	5.24 nM	5.4 nM	–
O=C(Cc1nnc(-c2cnc(NC3Cc4cc5c(cc4C3)OCO5)nc2)o1)N1CCc2nn[nH]c2C1 [Compound 29, 2-(5-(2-((6,7-dihydro-5H-indeno[5,6-d][1,3]dioxol-6-yl)amino)pyrimidin-5-yl)-1,3,4-oxadiazol-2-yl)-1-(3,4,6,7-tetrahydro-5H-[1,2,3]triazolo[4,5-c]pyridin-5-yl)ethan-1-one]	2.75 nM	3.27 nM	–
O=C(Cc1nnc(-c2cnc(NC3Cc4cc5c(cc4C3)CC5)nc2)o1)N1CCc2[nH]nnc2C1 [Compound 30, 2-(5-(2-((2,4,5,6-tetrahydro-1H-cyclobuta[f]inden-5-yl)amino)pyrimidin-5-yl)-1,3,4-oxadiazol-2-yl)-1-(1,4,6,7-tetrahydro-5H-[1,2,3]triazolo[4,5-c]pyridin-5-yl)ethan-1-one]	1.58 nM	1.92 nM	–
C#Cc1ccc2c(c1)CC(Nc1ncc(-c3nnc(CC(=O)N4CCc5[nH]nnc5C4)o3)cn1)C2 (stereo not drawn) [Compound 31, 2-(5-(2-((5-ethynyl-2,3-dihydro-1H-inden-2-yl)amino)pyrimidin-5-yl)-1,3,4-oxadiazol-2-yl)-1-(1,4,6,7-tetrahydro-5H-[1,2,3]triazolo[4,5-c]pyridin-5-yl)ethan-1-one]	2.61 nM	2.85 nM	–
